pIC50: −log10 of the molar value. Where two headings read alike, the source gives them in different places.
What was measured:
[1] = target: T1, cyclin B/CDK1 enzyme (Homo sapiens, UniProt P06493); assay: CDK1 ELISA kinase assay (phospho-Rb ser 795 detection); assay type: biochemical; details: In Vitro Enzyme Assays, read-out: CDK1 IC50
T1 construct: purchased New England BioLabs; host or cells: Sf9 insect cells, recombinant baculovirus
Method in brief: (§1)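 ELISA format: plate-bound GST-Rb, 200 μM ATP, Sf9 cyclin/CDK enzyme, 1 h at 30° C; then anti-pRb Ser795 primary overnight at 4° C, HRP secondary, TMB. IC50 after no-substrate background subtraction.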

[2] = tested on: HCT-116; assay: Cytotoxicity assay (SRB), HCT-116; assay type: cell-based; details: Homo sapiens, HCT-116, 72 h, read-out: In Vitro Cellular Activity IC50 HCT116
Method in brief: (§2)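 Cells grown in RPMI 1640 with 5% FBS were treated with compound for three days (HCT-116, LoVo, MCF-7) or six days (BT474). Viable cell mass was quantified by sulforhodamine B staining of TCA-fixed protein and read at 540 nm.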

[3] = tested on: MCF-7; assay: Cytotoxicity assay (SRB), MCF-7; assay type: cell-based; details: Homo sapiens, MCF7, 72 h, read-out: In Vitro Cellular Activity IC50 MCF-7
Method in brief: as §2

[4] = tested on: BT474; assay: Cytotoxicity assay (SRB), BT474; assay type: cell-based; details: Homo sapiens, BT-474, 144 h, read-out: In Vitro Cellular Activity IC50 BT474
Method in brief: as §2

[5] = tested on: LoVo; assay: Cytotoxicity assay (SRB), LoVo; assay type: cell-based; details: Homo sapiens, LoVo, 72 h, read-out: In Vitro Cellular Activity IC50 LOVO
Method in brief: as §2

[6] = target: T2, cyclin D1/cdk 4 enzyme (Homo sapiens, UniProt P11802); assay: CDK4 ELISA kinase assay (phospho-Rb ser 795 detection); assay type: biochemical; details: In Vitro Enzyme Assays, 200 μM ATP, read-out: CDK4 IC50
T2 construct: made in house; host or cells: Sf9 insect cells, recombinant baculovirus
T2 sequence (P11802 whole entry, species assumed): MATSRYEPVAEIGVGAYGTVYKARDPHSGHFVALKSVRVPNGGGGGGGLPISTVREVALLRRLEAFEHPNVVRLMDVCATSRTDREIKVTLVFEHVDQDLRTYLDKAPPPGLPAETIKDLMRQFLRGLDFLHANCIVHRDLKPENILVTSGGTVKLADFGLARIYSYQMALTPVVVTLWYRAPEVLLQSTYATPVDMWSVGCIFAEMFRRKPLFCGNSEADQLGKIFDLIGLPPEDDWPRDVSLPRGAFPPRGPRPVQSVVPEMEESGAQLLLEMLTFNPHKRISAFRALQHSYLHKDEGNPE
T2 sequence (P24385 whole entry partner, species assumed): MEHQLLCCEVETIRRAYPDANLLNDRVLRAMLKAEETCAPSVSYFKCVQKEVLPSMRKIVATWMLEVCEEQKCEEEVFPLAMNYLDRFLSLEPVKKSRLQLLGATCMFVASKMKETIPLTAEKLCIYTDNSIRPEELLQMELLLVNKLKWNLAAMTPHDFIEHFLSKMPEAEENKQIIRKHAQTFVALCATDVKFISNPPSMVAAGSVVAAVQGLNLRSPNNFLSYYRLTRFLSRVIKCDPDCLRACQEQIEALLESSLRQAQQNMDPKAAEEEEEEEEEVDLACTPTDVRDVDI
Method in brief: as §1

[7] = target: T3, cyclin E/CDK2 enzyme (Homo sapiens, UniProt P24941); assay: CDK2 ELISA kinase assay (phospho-Rb ser 795 detection); assay type: biochemical; details: In Vitro Enzyme Assays, read-out: CDK2 IC50
T3 construct: made in house; host or cells: Sf9 insect cells, recombinant baculovirus
Method in brief: as §1

T1 sequence (P06493 whole entry): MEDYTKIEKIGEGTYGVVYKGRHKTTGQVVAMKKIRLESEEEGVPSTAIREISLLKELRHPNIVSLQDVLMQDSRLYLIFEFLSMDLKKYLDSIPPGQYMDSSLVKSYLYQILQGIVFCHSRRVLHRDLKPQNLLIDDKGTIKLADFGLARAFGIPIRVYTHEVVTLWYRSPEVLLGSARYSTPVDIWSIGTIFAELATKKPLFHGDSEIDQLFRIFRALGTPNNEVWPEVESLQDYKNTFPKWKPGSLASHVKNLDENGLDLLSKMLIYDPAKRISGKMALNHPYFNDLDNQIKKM
T1 sequence (P14635 whole entry partner): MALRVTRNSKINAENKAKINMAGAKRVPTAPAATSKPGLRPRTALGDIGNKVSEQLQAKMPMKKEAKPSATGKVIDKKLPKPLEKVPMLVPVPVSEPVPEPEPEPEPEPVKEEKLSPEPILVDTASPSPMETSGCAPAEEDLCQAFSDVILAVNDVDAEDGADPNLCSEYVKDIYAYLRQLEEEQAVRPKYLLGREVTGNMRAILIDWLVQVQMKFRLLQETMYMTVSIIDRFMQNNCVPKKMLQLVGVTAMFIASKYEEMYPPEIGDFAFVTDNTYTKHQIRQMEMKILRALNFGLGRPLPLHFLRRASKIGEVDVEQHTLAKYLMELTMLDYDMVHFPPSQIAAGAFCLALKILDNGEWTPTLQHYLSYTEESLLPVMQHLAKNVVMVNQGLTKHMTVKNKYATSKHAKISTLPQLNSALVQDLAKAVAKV

SMILES | pIC50 [1] | pIC50 ([2]; HCT116 cells, SRB, three days) | pIC50 ([3]; MCF-7 cells, SRB, three days) | pIC50 ([4]; BT474 cells, SRB, 6 days) | pIC50 ([5]; LoVo cells, SRB, three days) | pIC50 [6] | pIC50 [7] | melting point | pIC50 [2] | pIC50 [3] | pIC50 [4] | pIC50 [5]
CC(=O)Oc1ccc(CN/C=C2\C(=O)NC(=O)c3ccc(Br)cc32)cc1OC(C)=O [Example 54, 2-(Acetyloxy)-4-({[(Z)-(6-bromo-1,3-dioxo-2,3-dihydroisoquinolin-4(1H)-ylidene)methyl]-amino}methyl)phenyl acetate] | < 4.30 | 5.19 | 5.04 | 5.19 | 5.23 | 6.80 | < 4.30 | 239 to 240 °C | – | – | – | –
NS(=O)(=O)c1ccc(CN/C=C2\C(=O)NC(=O)c3ccc(Br)cc32)cc1 [Example 56, 4-({[(Z)-(6-Bromo-1,3-dioxo-2,3-dihydroisoquinolin-4(1H)-ylidene)methyl]amino}methyl)benzenesulfonamide] | 4.79 | 4.55 | 4.57 | 4.64 | 4.52 | 6.32 | 5.89 | 273 to 274 °C | – | – | – | –
O=C1NC(=O)c2ccc(Br)cc2/C1=C/Nc1ccc(CN2CCCC2)cc1 [Example 59, (4Z)-6-Bromo-4-({[4-(pyrrolidin-1-ylmethyl)phenyl]amino}methylene)isoquinoline-1,3(2H,4H)-dione] | < 4.30 | – | – | – | – | 6.64 | 4.60 | 165 to 166 °C | 5.33 | 5.38 | 5.20 | 5.21
O=C1NC(=O)c2ccc(Br)cc2/C1=C/NCc1cc(O)cc(O)c1 [Example 64] | 4.78 | < 4.30 | < 4.30 | 4.55 | < 4.30 | 7.82 | 6.21 | 318 to 319 °C | – | – | – | –
CC(=O)Oc1cc(CNC=C2C(=O)NC(=O)c3ccc(Br)cc32)cc(OC(C)=O)c1 [Example 69, Acetic acid 3-acetoxy-5-{[(6-bromo-1,3-dioxo-2,3-dihydro-1H-isoquinolin-4-ylidenemethyl)-amino]-methyl}-phenyl ester] | < 4.30 | 5.19 | 5.09 | 5.25 | 5.28 | 6.92 | 4.35 | 257 to 258 °C | – | – | – | –
CN1CCN(c2ccc(N/C=C3\C(=O)NC(=O)c4ccc(F)cc43)cc2)CC1 [Example 70, (4Z)-6-Fluoro-4-({[4-(4-methylPiperzin-1-yl)phenyl]amino}methylene)isoquinoline-1,3(2H,4H)-dione] | 4.77 | 5.59 | 5.39 | 5.49 | 5.29 | 5.03 | < 4.30 | 242 to 243 °C | – | – | – | –
CN(C)Cc1ccc(N/C=C2\C(=O)NC(=O)c3ccc(Br)cc32)cc1 [Example 73] | 4.36 | 5.00 | 5.03 | 4.74 | 4.89 | 6.08 | 5.11 | 159 to 160 °C | – | – | – | –
COC(=O)Oc1ccc(CN/C=C2\C(=O)NC(=O)c3ccc(Br)cc32)cc1OC(=O)OC [Example 76, Carbonic acid 5-{[(6-bromo-1,3-dioxo-2,3-dihydro-1H-isoquinolin-4-ylidenemethyl)-amino]-methyl}-2-methoxycarbonyloxy-phenyl ester methyl ester] | 4.39 | 5.30 | 5.04 | 5.26 | 5.23 | 6.41 | < 4.30 | 239 to 240 °C | – | – | – | –
COc1cc(CN/C=C2\C(=O)NC(=O)c3ccc(Br)cc32)cc(OC(C)=O)c1OC [Example 77, 5-({[(Z)-(6-Bromo-1,3-dioxo-2,3-dihydroisoquinolin-4(1H)-ylidene)methyl]amino}methyl)-2,3-dimethoxyphenyl acetate] | < 4.30 | 5.32 | 4.84 | 5.11 | 5.08 | 6.42 | < 4.30 | 244 to 245 °C | – | – | – | –
COc1cc(CN/C=C2\C(=O)NC(=O)c3ccc(-c4ccsc4)cc32)cc(O)c1OC [Example 85] | < 4.30 | 5.43 | 5.08 | 5.46 | 5.57 | 9.00 | < 4.30 | 255 to 256 °C | – | – | – | –
COc1cc(CN/C=C2\C(=O)NC(=O)c3ccc(-c4ccoc4)cc32)cc(O)c1OC [Example 87] | 5.92 | 5.38 | 5.39 | 5.89 | 5.38 | 9.10 | 5.09 | 263 to 264 °C | – | – | – | –
COc1cc(CN/C=C2\C(=O)NC(=O)c3ccc(I)cc32)cc(O)c1OC [Example 89, (4Z)-6-Iodo-4-{[(3-hydroxy-4,5-dimethoxybenzyl)amino)methylene}isoquinoline-1,3(2H,4H)-dione] | < 4.30 | 5.43 | 4.70 | 5.23 | 5.11 | 8.70 | 5.48 | 265 to 266 °C | – | – | – | –
COc1ccc2c(c1)/C(=C/NCc1ccc(OC)c(O)c1)C(=O)NC2=O [Example 90, 4-[(3-Hydroxy-4-methoxy-benzylamino)-methylene]-6-methoxy-4H-isoquinoline-1,3-dione] | 4.65 | 5.01 | 4.92 | 5.16 | 4.62 | 7.51 | 5.54 | 240 to 242 °C (dec.) | – | – | – | –
O=C1NC(=O)c2ccc(Br)cc2/C1=C/c1cc(Br)c(O)c(Br)c1 [Example 94, (4Z)-6-Bromo-4-(3,5-dibromo-4-hydroxybenzylidene)isoquinoline-1,3(2H,4H)-dione] | < 4.30 | 5.47 | 5.64 | 5.70 | 5.19 | 5.03 | < 4.30 | 167 to 168 °C | – | – | – | –
O=Cc1sccc1-c1ccc2c(c1)/C(=C/Nc1ccc(CN3CCCCC3)cc1)C(=O)NC2=O [Example 97] | < 4.30 | 5.82 | 5.55 | 5.51 | 5.72 | 6.00 | 5.17 | 224 to 225 °C | – | – | – | –

— patent publication US7713994B2 (Wyeth LLC, priority 2005, dated 2010)
